According to patent publication US20250263404A1, “AMINOPYRIDINES AS ACTIVATORS OF PI3 KINASE” (UCL Business Ltd, priority 2021, published 2025):

Tests used:
[1] = test system: PI3Kα-WT and PI3Kα-KO MEFs; assay: Mass spectrometry-based phosphoproteomics in MEFs; format: cell-based, mouse; conditions: for differentially phosphorylated peptides/sites: PI3Kα-WT MEFs
Method: The inventors next investigated the impact of 1938 on cell signalling in an unbiased manner using phosphoproteomics. […] The inventors quantified 10,611 phosphosites from 3,093 proteins of which 9100, 1420 and 91 were pSer, pThr and pTyr residues, respectively (FIG. 16/Extended Data FIG. 8a). […] Compared to vehicle-treated cells, insulin treatment of PI3Kα-WT MEFs induced differential phosphorylation of 11 and 18 sites at 15 min and 4 h, respectively (FIG. 16/Extended Data FIG. 8c). […] Furthermore, approximately half of the 1938-controlled phosphosites have been previously reported (in PhosphoSitePlus) to be regulated by insulin, IGF-1, PI3K inhibition or AKT inhibition, with some linked to regulation by mTOR or PDK1 (FIG. 3gi,ii).
PI3Kα-WT and PI3Kα-KO MEFs, grown in 15 cm dishes, were serum-starved overnight in DMEM with 1% penicillin-streptomycin and stimulated by the addition of 0.05% DMSO, […] 1938 in final 0.05% DMSO or 100 nM insulin (Sigma, 15016) for 15 min or 4 h. Cells were lysed in […] urea lysis buffer [50 mM triethylammonium bicarbonate, 8 M urea, cOmplete™, EDTA-free protease inhibitor cocktail (1:50 dilution) (Roche, 11873580001), 1 PhosSTOP tablet (Roche, 4906845001), 1 mM sodium orthovanadate] and lysates sonicated until clear for ˜10 min with cooling breaks on ice. Protein concentration was measured using a BCA protein assay (Pierce #23227). 300 μg of protein was reduced with 5 mM Tris(2-carboxyethyl)phosphine hydrochloride (Sigma, C4706) at 37° C. for 20 min and alkylated using 10 mM 2-chloroacetamide (Sigma, 22790) for 20 min at room temperature in the dark. Proteins were digested with LysC for 3.5 h at 30° C. […] Fifty percent of each sample was analysed as 10 μl injections. […] Precursor ions were measured in a data-dependent mode in the orbitrap analyser at a resolution of 70,000 and a target value of 3e6 ions. The ten most intense ions from each MS1 scan were isolated, fragmented in the HCD cell, and measured in the Orbitrap at a resolution of 17,500. […]

[2] = test system: PIP3 levels in MEFs; assay: PIP3 measurement by mass spectrometry in MEFs; format: cell-based, mouse
Method: FIG. 21. a, MEFs were stimulated for the indicated time points with 1938 (5 μM) or for 2 min with PDGF (20 ng/ml) or insulin (100 nM), followed by lipid extraction and PIP3 measurement by mass spectrometry. b, MEFs were stimulated for 2 min with increasing doses of 1938 or PDGF, followed by lipid extraction and PIP3 measurement by mass spectrometry. c, A549 cells were stimulated for 2 min with increasing doses of 1938 or insulin, or 10 ng/ml PDGF, followed by lipid extraction and PIP3 measurement by mass spectrometry.
Class I PI3Ks phosphorylate the PtdIns(4,5)P2 lipid in the plasma membrane to generate PtdIns(3,4,5)P3 (or PIP3), which can be converted to PtdIns(3,4)P2 by the action of 5-phosphatases. Treatment of MEFs (Mouse Embryonic Fibroblasts) with 1938 very rapidly (within 30 sec) led to increased PIP3 levels, as assessed by mass spectrometry, maxing at 5 min and maintained at this maximum level for up to 40 min (FIG. 21a). […] The observation of different levels of PIP3 induced by these growth factors is in line with the notion that PI3Kα is the sole mediator of PIP3 production downstream of insulin. This contrasts with PDGF, which activates both PI3Kα and PI3Kβ, with the latter PI3K isoform contributing substantially to acute PDGF-stimulated PIP3 generation in MEFs, correlating with the higher PIP3 levels induced by this agonist compared to insulin and 1938 (FIG. 21a). In the same experiment as in FIG. 21a, clear PI(3,4)P2 signal was detected in MEFs upon PDGF stimulation but not with 1938 (at 5 μM). This is consistent with a higher threshold for detection of PI(3,4)P2 compared to PIP3 by mass spectrometry (due primarily to background contamination, as discussed by Malek et al.), together with the relatively lower PI3K activation by 1938 compared to a high dose of PDGF, as is also illustrated by the experiments shown below.
These maximal 1938-induced PIP3 levels are below those required to give rise to sufficient PI(3,4)P2 to be detectable by mass spectrometry, a conclusion also supported by the observation that substantial levels of PIP3 induced by lower doses of PDGF (e.g. 0.5 ng/ml) were also not sufficient to give rise to levels of PI(3,4)P2 detectable by mass. […] A strong PIP3 response was also observed with insulin in these cells, with no PIP3 induced by PDGF, in line with the absence of this receptor in epithelial cells, including in A549.

**Q.** `CCN1CCN(c2ccc(Nc3cc(Nc4cccc5c4N(C(C)=O)CC5)ccn3)cc2)CC1` [Example 1938] was tested. Which “signalling impact in PI3Kα-KO MEFs” value ([1]; PI3Kα-KO MEFs) did it give?
**A.** little signalling impact

**Q.** What about the differentially phosphorylated peptides/sites ([1]; 15 min treatment) of the same compound?
**A.** 27

**Q.** And the differentially phosphorylated peptides/sites ([1]; 4 h treatment)?
**A.** 50

**Q.** What about the “concentration at which PIP3 induction plateaus” value ([2]; 2 min) of the same compound?
**A.** around 10 μM

**Q.** And the “duration of maximum PIP3 level” value ([2]; 1938 5 μM)?
**A.** up to 40 min

**Q.** And the “time of maximum PIP3 level” value ([2]; 1938 5 μM)?
**A.** 5 min

**Q.** And the “time to increased PIP3 levels” value ([2]; 1938 5 μM)?
**A.** ≤ 30 s

**Q.** And the EC50 ([2]; Mus musculus, 2 min, fixed 2 min time point, read-out: EC50 of PIP3 induction)?
**A.** ~5 µM
